Legend:
[1] = tested on: ear of Sprague Dawley Rats; assay: Toxicity study: topical application of tazarotene spiked with dimer impurity on rat ears, ear thickness measurement; format: in vivo
Method: Inventor performed the toxicity study of tazarotene spiked with known dimer impurity by applying the fixed concentration a solution of tazarotene (0.1% w/v tazarotene) with variable concentrations of impurity (0-1500 ppm) on Sprague Dawley Rats as given in Table 1.
Each sample (100 μl) was applied topically once daily on the left and right ear of the animals (Sprague Dawley Rats) of the respective groups from day 0 to day 9. Animals were checked for recovery from day 10 to day 14. Ear thickness measurement was repeated on day 3, 7, 10, 12 and 14.

[2] = tazarotene gel, psoriasis, cited from earlier work

SMILES	effect of level of dimer impurity on ear thickness and inflammation ([1]; dimer impurity 0-1500 ppm in tazarotene samples, topical application)	toxicity of the dimer impurity ([1]; found during the animal studies)	cessation of treatment due to adverse events ([2]; of patient population)	most common adverse effect [2]
CC1(C)CCSc2ccc(C#CC#Cc3ccc4c(c3)C(C)(C)CCS4)cc21 [dimer impurity, 4,4-dimethyl-6-[4-(4,4-dimethylthiochroman-6-yl)-buta-1,3-diynyl]-thiochroman]	dose dependent and significant increase	highly toxic	–	–
CCOC(=O)c1ccc(C#Cc2ccc3c(c2)C(C)(C)CCS3)nc1 [tazarotene, ethyl 6-[(4,4-dimethylthiochroman-6-yl)ethynyl]nicotinate]	–	–	about 5%	mild to moderate burning, pruritus, stinging and erythema

— patent publication US9688667B2, “Tazarotene with low dimer impurity for treating acne or psoriasis” (SUN PHARMACEUTICAL INDUSTRIES LIMITED, priority 2013, dated 2017)
